Consider two compounds from US20200247808A1, “Heterocyclic Tec-Family Kinase Inhibitors” (GB005, Inc., priority 2015, published 2020).

Like-named read-outs stand apart in the source and are kept apart here.

Data set [1] in a line: Formation of glutathione adducts (GSH reactivity, HPLC-UV). The data set is classed as in vitro ADME. The following applies: 10 mM GSH, 20 micromolar test article, pH 7.4, 37° C. How it is done: Generation of non-specific thiol adducts can be measured by assaying reactivity of compounds with GSH. Formation of GSH adducts was measured by incubating GSH (10 mM) in 100 mM Phosphate Buffer pH 7.4 with test article at 20 micromolar final concentration. Briefly, 600 microliters of phosphate buffer pH 7.4 was added in a glass vial with 200 microliters of 100 micromolar test article in DMSO. Samples were warmed at 37° C. for 10 minutes and the reaction was initiated by the addition of 200 microliters of 50 mM reduced GSH in phosphate buffer pH 7.4 and incubated at 37° C. At various time points (0.5 min, 5 min, 15 min, 30 min, 60 min, 120 min and 180 min) 50 microliter aliquots were placed into an injection vial equipped with an insert and mixed with 50 microliters of 1% formic acid in 99% Methanol. Vials were loaded onto the HPLC injection tray and each sample was injected onto a C18 column (ACE 3 C18, 4.6×50 mm column) and both the parent and product were monitored by UV absorbance at 254 nm on an Agilent Technologies 1100 series HPLC. Peaks were integrated and the percentage of product present calculated as the percent of the total peak area on the parent and product at 60 minutes.

A short description of data set [2]: Mouse plasma pharmacokinetics. The data set is classed as in vivo, mouse (CD-1). As to conditions: male, CD-1, mouse, mice; for AUC / Cmax: free base; for bioavailability: oral 10 mg/kg vs intravenous 3 mg/kg. How it is done:
Plasma pharmacokinetic studies were conducted in CD1 mice to compare the plasma exposure following oral and intravenous administration of the free-base form of each compound to mice and to calculate bioavailability. Male CD-1 mice (25-30 g on delivery; Charles River) were used for mouse PK studies. The mice were housed 3 per cage in a room under controlled conditions of temperature ([…]) and humidity (40-70%), with a 12 h dark/light cycle. The animals were acclimated for a minimum of 3 days prior to use and received standard rodent chow (Charles River) and municipal tap water ad libitum. Nine animals were used per study, they were dosed PO or IV and bled from the mandibular vein, 2 to 3 times per animal at the following time points; pre dose, 15 and 30 min, 1, 2, 3, 5, 7 and 24 h (0.1 mL whole blood /time point; composite PK). Blood was collected into microvette K3E tubes ([…]) at RT and then centrifuged at 5,000 RPM for 2 min at 4° C. in order to separate plasma. Isolated plasma (0.015 mL/time point) was pipetted into 96 well plates (Canadian Life Science) which were stored at minus 20° C. until analysis (2 duplicate plates per study).
Concentrations of compound in rodent plasma samples were determined by LC-MS-MS. Two standard curves containing 8 points each were prepared by spiking in methanol or plasma with a solution containing the test article at a defined concentration. The range of final compound concentration in the standard curve was 0 to 1 μg/mL. Three sets of quality control (QC) samples in plasma at low, medium and high concentration within the standard curve range were also prepared. For analysis, the compound was extracted using protein precipitation extraction procedure. Briefly, a three-fold volume of methanol containing an internal standard was added to the plasma and standard curve solution samples and then incubated at 4° C. for 5 minutes. The plates were centrifuged for 30 minutes at 4° C. at 4000 rpm and the resulting supernatant was transferred to a 96-well propylene plates and sealed with cover to avoid sample evaporation. Ten μL aliquots of extracted samples were injected using a 96-well plate autosampler held at 4° C. onto a ACE C18 50×4.6 mm, 3 um HPLC column held at 30° C. Plasma derived parent compound was eluted using the following conditions: pump flow rate was set at 1 mL/min for a five minutes chromatographic method using a 3 min gradient elution from 20% solvent A (0.1% formic acid in water) and 80% solvent B (0.1% Formic Acid in Methanol) to 10% solvent A and 90% solvent B. The method was followed by 1 min column wash at 95% solvent B and 1 min column re-equilibration back to 80% solvent B. Under these conditions the compound was eluted after 1.8 minutes. For LC-MS-MS compound detection, the curtain gas was set at 10, collision gas was set at 8, ion spray voltage was set at 4500, temperature was set at 500, ion source gas 1 was set at 40 and ion source gas 2 was set at 60. Using a positive ionization mode, the MRM transition monitored was set at […]. Under these conditions, standard curves were linear up to 2000 ng/mL, the lower limit of quantification was generally at 10 ng/mL.
The area under the curve (AUCtot and AUClast), the maximum plasma concentration (Cmax) and time (Tmax), and terminal half life (T1/2), clearance and volume of distribution were calculated by regression analysis using Kinetica version 5.0 (Thermo Fisher Scientific) using a Non-Compartmental Extravascular/IV Bolus analysis model.

The mark [3] stands for this setting: intravenous 3 mg/kg, read-out: Intravenous AUC.
The mark [4] stands for this setting: oral 10 mg/kg, read-out: Oral AUC.

Regarding `CC#CC(=O)N[C@H]1C[C@@H](n2nc(-c3ccc(Oc4ccccc4)cc3)c3c(N)ncnc32)C1` [Compound 1], the “GSH Reactivity GSH Conjugate at 60 minutes” value in data set [1] was 7.3 % of total Peaks. Further, the results for the AUC in data set [2] (setting [3]) and in data set [2] (setting [4]) were 841 ng·h/mL and 1450 ng·h/mL, respectively. Moreover, the bioavailability (commonly the share of a dose that reaches the circulation, judged against a reference dose that is usually intravenous) in data set [2] is 52%. In data set [2] (oral 10 mg/kg), the maximum concentration (Cmax) (usually the maximum level reached in the sampled fluid or tissue) amounted to 1280 ng/mL.

`C=CC(=O)N[C@H]1C[C@@H](n2nc(-c3ccc(Oc4ccccc4)cc3)c3c(N)ncnc32)C1` [Compound 2]: the “GSH Reactivity GSH Conjugate at 60 minutes” value in data set [1] is reported as 14.2 % of total Peaks. The AUC – broadly, concentration integrated over time – in data set [2] (setting [3]) amounted to 954 ng·h/mL; in data set [2] (setting [4]) it was 1440 ng·h/mL. For the same compound, the bioavailability in data set [2] was 45%. In data set [2] (oral 10 mg/kg), this compound came in with a Cmax of 1350 ng/mL.
